{
  "source": "paper PMC6778635",
  "about": "(Cancer Science, 2019)",
  "biological_target": "p97/VCP (Homo sapiens, UniProt P55072)",
  "sequence (P55072 2-806)": "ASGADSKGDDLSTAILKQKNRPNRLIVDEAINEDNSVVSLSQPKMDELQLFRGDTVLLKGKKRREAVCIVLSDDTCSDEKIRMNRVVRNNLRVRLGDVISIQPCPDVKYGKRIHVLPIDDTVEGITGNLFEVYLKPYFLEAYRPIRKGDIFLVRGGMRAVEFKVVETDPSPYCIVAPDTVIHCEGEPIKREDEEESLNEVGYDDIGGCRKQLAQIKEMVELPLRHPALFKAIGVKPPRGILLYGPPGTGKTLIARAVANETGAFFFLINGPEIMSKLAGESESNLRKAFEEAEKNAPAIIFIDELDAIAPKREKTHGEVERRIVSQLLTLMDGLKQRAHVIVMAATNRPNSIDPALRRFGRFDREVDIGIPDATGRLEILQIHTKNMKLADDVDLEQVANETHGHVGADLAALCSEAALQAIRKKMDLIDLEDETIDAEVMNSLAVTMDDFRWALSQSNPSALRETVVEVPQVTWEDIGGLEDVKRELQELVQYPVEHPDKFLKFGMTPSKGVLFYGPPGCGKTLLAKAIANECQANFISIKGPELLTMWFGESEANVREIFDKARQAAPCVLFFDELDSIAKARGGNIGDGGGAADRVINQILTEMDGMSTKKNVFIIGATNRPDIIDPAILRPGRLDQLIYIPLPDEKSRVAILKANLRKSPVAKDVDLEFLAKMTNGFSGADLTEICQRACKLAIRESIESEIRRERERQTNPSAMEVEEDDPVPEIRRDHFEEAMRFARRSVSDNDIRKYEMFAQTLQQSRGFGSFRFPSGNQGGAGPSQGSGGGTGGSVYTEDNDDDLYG",
  "assay": "cell-free ATPase assay on purified recombinant p97/VCP",
  "format": "biochemical",
  "data": [
    {"smiles": "c1ccc(CNc2nc(NCc3ccccc3)c3ccccc3n2)cc1", "note": "[DBeQ]", "values": [
      {"measurement": "IC50", "result": "6.99 ± 0.5", "unit": "µM"}
    ]}
  ]
}
